From patent US9751853B2, “Solid forms of 3-(5-amino-2-methyl-4-oxo-4H-quinazolin-3-yl)-piperidine-2,6-dione, and their pharmaceutical compositions and uses” (Celgene Corporation, priority 2011, dated 2017)
Entries after “also recorded” stand apart in the source; their conditions may differ. Like-named read-outs stand apart in the source and are kept apart here.

Columns and labels:
[1] = Approximate solubility in test solvents (visual/gravimetric); assay type: physicochemical; conditions: thermodynamic from solid
Method: Solubility: A weighed sample of Compound A hydrochloride (about 50 mg) was treated with a known volume of a test solvent. The solvents used were either reagent or HPLC grade. The resulting mixture was agitated for at least 24 hours at about 25° C. If all of the solids appeared to be dissolved by visual inspection, the estimated solubilities were calculated based on the total volume of solvent used to give a complete solution. The actual solubilities may be greater than those calculated due to the use of large amount of solvent or to a slow rate of dissolution. If solids were present, the solubility was measured gravimetrically. A known volume of filtrate was evaporated to dryness and the weight of the residue was measured.

[2] = Dynamic Vapor Sorption (moisture sorption); assay type: physicochemical
Method: Dynamic Vapor Sorption (DVS): Hygroscopicity was determined on a Surface Measurement Systems DVS. Typically, a sample of about 2-10 mg was loaded into the DVS instrument sample pan. The sample was analyzed on a DVS automated sorption analyzer at room temperature. The relative humidity was increased from 0 to 95% RH at 10% RH step, then at 95% RH. The relative humidity was then decreased in a similar manner to accomplish a full adsorption/desorption cycle.

[3] = Solvent/anti-solvent recrystallization, solid form by XRPD; assay type: physicochemical; conditions: MeCN/H2O, ratio 1:5
Method: Solvent/Anti-Solvent Recrystallization: The selected solvent (MeCN/water) was saturated with Compound A hydrochloride at room temperature. Once the solids were completely dissolved, an anti-solvent (acetone or IPA) was added into the solution. The mixture was stirred at room temperature overnight. If no precipitation occurred, the vial was further cooled by placing into a refrigerator (about 0-5° C.). The solids resulting from the recrystallization were filtered and air-dried.
X-ray Powder Diffraction (XRPD): XRPD analysis was conducted on a Thermo ARL X'TRA™ X-ray powder diffractometer using Cu Kα radiation at 1.54 Å. The instrument was equipped with a fine focus X-ray tube. The voltage and amperage of X-ray generator were set at 45 kV and 40 mA, respectively. The divergence slices were set at 4 mm and 2 mm and the measuring slices were set at 0.5 mm and 0.2 mm. Diffracted radiation was detected by a peltier-cooled Si(Li) solid-state detector. A theta-two theta continuous scan at 2.40°/min (0.5 sec/0.02° step) from 1.5°2θ to 40°2θ was used. A sintered alumina standard was used to check the peak position. In general, positions of XRPD peaks are expected to individually vary on a measurement-by-measurement basis by about +0.2°2θ. […]

[4] = Grinding studies, solid form by XRPD; assay type: physicochemical
Method: Grinding Studies: Grinding experiments were performed using a Wig-L-Bug shaker. About 50 mg of Compound A hydrochloride was added to a polystyrene tube (1″×½″) with a Plexi bead (⅜″). The vial was capped and placed on the shaker for about 50 s. For wet grinding, drops of water were added to the vial and a wet paste was formed prior to placing on the shaker.
(§1) X-ray Powder Diffraction (XRPD): XRPD analysis was conducted on a Thermo ARL X'TRA™ X-ray powder diffractometer using Cu Kα radiation at 1.54 Å. The instrument was equipped with a fine focus X-ray tube. The voltage and amperage of X-ray generator were set at 45 kV and 40 mA, respectively. The divergence slices were set at 4 mm and 2 mm and the measuring slices were set at 0.5 mm and 0.2 mm. Diffracted radiation was detected by a peltier-cooled Si(Li) solid-state detector. A theta-two theta continuous scan at 2.40°/min (0.5 sec/0.02° step) from 1.5°2θ to 40°2θ was used. A sintered alumina standard was used to check the peak position. In general, positions of XRPD peaks are expected to individually vary on a measurement-by-measurement basis by about +0.2°2θ. In general, as understood in the art, two XRPD patterns match one another if the characteristic peaks of the first pattern are located at approximately the same positions as the characteristic peaks of the second pattern. As understood in the art, determining whether two XRPD patterns match or whether individual peaks in two XRPD patterns match may require consideration of individual variables and parameters such as, but not limited to, preferred orientation, phase impurities, degree of crystallinity, particle size, variation in diffractometer instrument setup, variation in XRPD data collection parameters, and/or variation in XRPD data processing, among others. The determination of whether two patterns match may be performed by eye and/or by computer analysis.

[5] = Humidity studies, solid form by XRPD; assay type: physicochemical
Method: as §1, with “Humidity Studies: […] The vials were placed in 40° C./75% RH humidity chamber with one vial capped and one vial open. The solids were tested by XRPD after four weeks. […] X-ray Powder” for “X-ray Powder”

[6] = Cooling recrystallization, solid form by XRPD; assay type: physicochemical; conditions: no antisolvent
Method: Cooling Recrystallization: The selected solvents (THF/water, MeCN/water, MeOH/0.1N HCl, and EtOH/0.1N HCl) were saturated with Compound A hydrochloride at about 50-70° C. Once the solids were completely dissolved, the solution was rapidly cooled by placing into a refrigerator (about 0-5° C.). Solids were isolated after 1 to 3 days.
as §1

[7] = Chemical stability upon storage
[8] = Stability upon compression; conditions: 2000-psi pressure for about 1 minute

Compound: Cc1nc2cccc(N)c2c(=O)n1C1CCC(=O)NC1=O.Cl (stereo not drawn) [Form A1, 3-(5-amino-2-methyl-4-oxo-4H-quinazolin-3-yl)-piperidine-2,6-dione hydrochloride]
- solubility ([1]; aqueous with cosolvent or surfactant or cyclodextrin, EtOH/water (1:1), about 25° C., read-out: approximate solubility): 3000 to 10000 µg/mL
- solubility ([1]; aqueous with cosolvent or surfactant or cyclodextrin, MeCN/water (1:1), about 25° C., read-out: approximate solubility): > 25000 µg/mL
- solubility ([1]; aqueous with cosolvent or surfactant or cyclodextrin, THF/water (1:1), about 25° C., read-out: approximate solubility): > 25000 µg/mL
- solubility ([1]; aqueous with cosolvent or surfactant or cyclodextrin, acetonitrile:water, solvent system for scaleup, read-out: solubility): > 50000 µg/mL
- solubility ([1]; organic solvent or mixture, CH2Cl2, about 25° C., read-out: approximate solubility): 3000 to 10000 µg/mL
- solubility ([1]; organic solvent or mixture, MeOH, about 25° C., read-out: approximate solubility): 3000 to 10000 µg/mL
- solubility ([1]; organic solvent or mixture, THF, about 25° C., read-out: approximate solubility): 3000 to 10000 µg/mL
- solubility ([1]; organic solvent or mixture, other organic solvents tested, about 25° C., read-out: approximate solubility): < 3000 µg/mL
- solubility ([1]; water, about 25° C., read-out: approximate solubility): 3000 to 10000 µg/mL
- hygroscopicity ([2]; DVS 0 to 95% RH): non-hygroscopic
- XRPD after full adsorption/desorption cycle ([2]; after DVS cycle): unchanged
- mass change relative to the dry mass ([2]; relative humidity increased from 0 to 95%): 0.15%
- XRPD Result after recrystallization ([3]; antisolvent Acetone): Form A1
- XRPD Result after recrystallization ([3]; antisolvent IPA, hydrochloride): partial salt dissociation; also recorded: Form Al + Form A
- XRPD Result after grinding ([4]; Dry grinding): unchanged
- XRPD Result after grinding ([4]; Wet grinding (paste)): unchanged
- Solid form after humidity exposure ([5]; 40° C./75% RH environment for four weeks): not changed
- XRPD Result after humidity exposure ([5]; 40° C./75% RH for 4 weeks, closed vial): Form A1
- XRPD Result after humidity exposure ([5]; 40° C./75% RH for 4 weeks, open vial): Form A1
- XRPD Result after humidity exposure ([5]; 95% RH at room temperature for 4 days, hydrochloride): not changed; also recorded: Form A1
- XRPD Result after recrystallization ([6]; EtOH/0.1N HCl): Form A1
- XRPD Result after recrystallization ([6]; MeCN/H2O, hydrochloride): Form A1 + Form A
- XRPD Result after recrystallization ([6]; MeOH/0.1N HCl): Form A1
- XRPD Result after recrystallization ([6]; THF/H2O, hydrochloride): Complete salt dissociation; also recorded: Form A
- chemical stability upon storage ([7]; 40° C. and 75% relative humidity (RH)): chemically stable
- chemical stability upon storage ([7]; 40° C. under a nitrogen atmosphere): chemically stable
- chemical stability upon storage ([7]; 40° C. under vacuum): chemically stable
- chemical stability upon storage ([7]; 60° C. in a closed container): chemically stable
- chemical stability upon storage ([7]; room temperature, exposed to air and light, for 6 weeks): chemically stable
- stability upon compression [8]: stable
